Among the data in US20250250264A1, “KIF18A INHIBITOR AND USE THEREOF” (Wuhan Humanwell Innovative Drug Research and Development …, priority 2022, published 2025) are IC50 values, retold here.

The structures appear in SMILES notation. Where two headings read alike, the source gives them in different places.

The target in test [1] is recombinant protein KIF18A (kinesin domain: aa 1-467) (Homo sapiens (Human), UniProt Q8NI77). Description: Assay on inhibition of KIF18A enzymatic activity (ADP-Glo). In kind it is biochemical. The settings on record: KIF18A 80 nM, ATP 80 μM, 3 h at room temperature, ADP-Glo luminescence; read-out: IC50 (μM), inhibitory effects of compounds on KIF18A enzymatic activity. The source says:
The recombinant protein KIF18A (kinesin domain: aa 1-467) used in this assay was expressed by the Bac-to-Bac baculovirus expression system from Invitrogen, and the resulting protein was purified for use in this assay (Seki, M. et al. 2003 Nucleic Acids Res.). Quantitative detection of KIF18A enzymatic activity was completed using an ADP-Glo™ kinase assay kit (Promega Inc). Related procedures strictly followed the product instructions, which are briefly described as follows:
The reaction system consisted of a test compound, the recombinant protein KIF18A (aa 1-467), ATP (Promega Inc), and an assay buffer. The test compound was prepared into a 0.5 mM stock solution using DMSO (Sigma Inc) and then serially diluted in DMSO. The assay buffer consisted of an aqueous solution of 15 mM Tris, 10 mM MgCl2 (Sigma Inc), 0.01% Pluronic F-68 (Life Technologies Inc), 1 μM paclitaxel (Cytoskeleton Inc), 30 μg/mL porcine tubulin (Cytoskeleton Inc), and 2% DMSO. The KIF18A protein (final concentration: 80 nM) and the compound at different concentrations (1 μL) were added to the prepared assay buffer (50 μL), and the mixture was incubated at room temperature for 15 min. Then, ATP (final concentration: 80 μM) was added to the reaction mixture, and the resulting mixture was incubated at room temperature for 3 h. After the reaction was completed, 5 μL of the ADP-Glo™ reagent and 2.5 μL of the reaction mixture were added to a 384-well plate (Grenier Inc). The resulting mixture was mixed homogeneously, then sealed by an aluminum foil sealing film, and incubated at room temperature in the dark for 40 min. Finally, 10 μL of the […] was added to each reaction well, and the mixture was incubated at room temperature in the dark for 40 min. After all reactions were completed, the luminescence values of the wells were read on a microplate reader (Molecular Device_SpectraMax Id5), and the inhibition ratios were calculated. The calculation formula for the inhibition rates was as follows: inhibition rate=(1−(compound group−blank group)/(negative control group−blank group))×100%. Then, based on the inhibition rates at different compound concentrations, the IC50 value of the test compound was calculated using the GraphPad Prism 8 software.
On the technique in general: In ADP-Glo the light output rises with the ADP produced.

In test [2] the test system is NIH:OVCAR-3 cells. Description: Assay on inhibition of OVCAR3 tumor cell proliferation (CellTiter-Glo). In kind it is cell-based. The note with it: 3 days of drug treatment, read-out: IC50 (μM), inhibitory effects of compounds on tumor cell proliferation. As for the experimental part: NIH:OVCAR-3 cells (ATCC, Cat No. HTB-161, purchased from Co-Bier) were seeded into a T75 culture flask and cultured in an RPMI 1640 medium containing 20% FBS for 3 days in preparation for subsequent culturing and seeding into a 96-well plate for the cell proliferation assay.
The OVCAR3 cells were seeded at a density of 3000 cells/100 μL/well into the 96-well cell plate, and then the plate was incubated in an incubator (37° C., 5% CO2) for 18 h. On the second day, drug treatment was started. Serially diluted test compound solutions (each drug starting at a concentration of 10 μM, diluted in DMSO, with a dilution ratio of 1:3, and nine gradient points for each drug) or DMSO (negative control) was added to the medium in the plate at 100 μL/well, and a blank group was set up with only medium, but no seeded cell strains. After the drug addition, the plate was incubated in the incubator for another 3 days (37° C., 5% CO2). On the fourth day, plate detection was performed. To each well, 100 μL of CellTiter-Glo reagent (Promega G9243) was added. The plate was shaken for 5 min and then left to stand at room temperature for 5 min. The chemical luminescence signal value of each well was determined using a microplate reader (PerkinElmer EnVision®2104). Cell proliferation inhibition rate=(1−(compound group−blank group)/(DMSO group−blank group))×100%. Then, the IC50 value of each compound was calculated using the GraphPad Prism 8 software.
On the technique in general: Cellular ATP, detected with luciferase, serves as a proxy for viable cell number.

Chain of recombinant protein KIF18A (kinesin domain: aa 1-467) (Q8NI77 1-467): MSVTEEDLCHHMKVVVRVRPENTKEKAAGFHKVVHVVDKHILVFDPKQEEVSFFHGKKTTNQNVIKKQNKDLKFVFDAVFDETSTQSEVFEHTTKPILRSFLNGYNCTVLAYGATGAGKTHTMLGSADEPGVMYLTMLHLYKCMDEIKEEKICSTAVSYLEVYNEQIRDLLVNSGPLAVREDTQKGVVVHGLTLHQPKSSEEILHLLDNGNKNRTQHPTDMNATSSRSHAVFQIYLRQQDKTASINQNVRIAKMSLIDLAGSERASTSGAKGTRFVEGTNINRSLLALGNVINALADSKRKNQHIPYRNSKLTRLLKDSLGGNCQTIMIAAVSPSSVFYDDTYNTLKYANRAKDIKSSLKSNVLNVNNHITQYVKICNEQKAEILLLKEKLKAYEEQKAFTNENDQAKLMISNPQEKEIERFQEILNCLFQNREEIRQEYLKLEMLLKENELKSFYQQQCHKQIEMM
Chain of recombinant protein KIF18A (kinesin domain: aa 1-467) (P02550 whole entry partner, the tested form may be a part): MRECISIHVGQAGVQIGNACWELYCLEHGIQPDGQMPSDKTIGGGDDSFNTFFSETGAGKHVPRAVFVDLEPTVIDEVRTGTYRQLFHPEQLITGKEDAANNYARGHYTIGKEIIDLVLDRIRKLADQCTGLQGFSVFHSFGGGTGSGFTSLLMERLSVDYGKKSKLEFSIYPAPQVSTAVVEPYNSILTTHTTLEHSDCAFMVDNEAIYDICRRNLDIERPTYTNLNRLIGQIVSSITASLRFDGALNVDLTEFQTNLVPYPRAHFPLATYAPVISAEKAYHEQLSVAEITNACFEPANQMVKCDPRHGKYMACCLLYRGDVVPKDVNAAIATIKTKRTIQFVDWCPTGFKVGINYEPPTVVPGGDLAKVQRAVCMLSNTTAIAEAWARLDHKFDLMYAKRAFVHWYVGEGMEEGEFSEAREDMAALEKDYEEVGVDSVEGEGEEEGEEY
Chain of recombinant protein KIF18A (kinesin domain: aa 1-467) (P02554 whole entry partner, the tested form may be a part): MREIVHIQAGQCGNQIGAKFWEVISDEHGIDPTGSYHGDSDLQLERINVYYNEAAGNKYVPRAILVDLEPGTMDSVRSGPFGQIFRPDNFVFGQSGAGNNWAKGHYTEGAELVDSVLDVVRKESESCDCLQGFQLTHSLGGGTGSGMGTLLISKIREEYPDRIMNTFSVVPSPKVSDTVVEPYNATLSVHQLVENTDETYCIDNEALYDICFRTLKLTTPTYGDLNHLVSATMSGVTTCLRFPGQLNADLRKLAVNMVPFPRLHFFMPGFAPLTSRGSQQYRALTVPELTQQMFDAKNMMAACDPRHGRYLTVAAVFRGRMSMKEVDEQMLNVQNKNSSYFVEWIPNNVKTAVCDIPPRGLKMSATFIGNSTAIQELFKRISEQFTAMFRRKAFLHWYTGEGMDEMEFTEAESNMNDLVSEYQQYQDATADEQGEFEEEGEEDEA

Regarding `Cc1cc(-c2cnn(-c3ccc(NS(=O)(=O)CCO)cc3N3CCC4(CC3)CC4)c2)nc(OCCC(F)(F)F)n1` [Example I-115, N-(4-(4-(6-Methyl-2-(3,3,3-trifluoropropoxy)pyrimidin-4-yl)-1H-pyrazol-1-yl)-3-(6-azaspiro[2.5]octan-6-yl)phenyl)-2-hydroxyethane-1-sulfonamide], the IC50 was 0.005 µM in test [1] and 0.167 µM in test [2] (Homo sapiens, OVCAR-3, 72 h).
On the same counts, the results for `Cc1cc(-c2nnc(-c3ccc(NS(=O)(=O)CCO)cc3N3CCC4(CC3)CC4)o2)nc(N2CCC3(CC3)C2)n1` [Example I-17, 2-Hydroxy-N-(4-(5-(6-methyl-2-(5-azaspiro[2.4]heptan-5-yl)pyrimidin-4-yl)-1,3,4-oxadiazol-2-yl)-3-(6-azaspiro[2.5]octan-6-yl)phenyl)ethane-1-sulfonamide] are 0.01 µM and 0.56 µM.
On the same counts, the results for `Cc1cc(-c2nnc(-c3ccc(NS(=O)(=O)CCO)cc3N3CCC4(CC3)CC4)o2)nc(N2CC3CC3C2)n1` (stereo not shown) [Example I-86, N-(4-(5-(2-(3-azabicyclo[3.1.0]hexan-3-yl)-6-methylpyrimidin-4-yl)-1,3,4-oxadiazol-2-yl)-3-(6-azaspiro[2.5]octan-6-yl)phenyl)-2-hydroxyethane-1-sulfonamide] are 0.003 µM and 0.07 µM.
On the same counts, the results for `Cc1cc(-c2nnc(-c3ccc(NS(=O)(=O)CCO)cc3N3CCC4(CC3)CC4)s2)nc(N2CCC(F)(F)CC2)n1` [Example I-77, N-(4-(5-(2-(4,4-Difluoropiperidin-1-yl)-6-methylpyrimidin-4-yl)-1,3,4-thiadiazol-2-yl)-3-(6-azaspiro[2.5]octan-6-yl)phenyl)-2-hydroxyethane-1-sulfonamide] are 0.002 µM and 0.12 µM.
Regarding `Cc1cc(-c2nnc(-c3ccc(NS(=O)(=O)CCO)cc3N3CCC4(CC3)CC4)o2)nc(N2CCO[C@H](C)C2)c1` [Example I-1, (R)-2-Hydroxy-N-(4-(5-(4-methyl-6-(2-methylmorpholino)pyridin-2-yl)-1,3,4-oxadiazol-2-yl)-3-(6-azaspiro[2.5]octan-6-yl)phenyl)ethane-1-sulfonamide], the IC50 in test [1] was 0.033 µM; in test [2] (Homo sapiens, OVCAR-3, 72 h), 0.045 µM.
On the same counts, the results for `CCc1cc(-c2cnn(-c3ccc(NS(=O)(=O)CCO)cc3N3CCC4(CC3)CC4)c2)nc(N2CCC(F)(F)CC2)n1` [Example I-95, N-(4-(4-(2-(4,4-Difluoropiperidin-1-yl)-6-ethylpyrimidin-4-yl)-1H-pyrazol-1-yl)-3-(6-azaspiro[2.5]octan-6-yl)phenyl)-2-hydroxyethane-1-sulfonamide] are 0.002 µM and 0.412 µM.
On the same counts, the results for `Cc1cc(-c2nnc(-c3ccc(NS(=O)(=O)CCO)cc3N3CCC4(CC3)CC4)o2)nc(N2C[C@@H](F)[C@@H](F)C2)n1` [Example I-101, N-(4-(5-(2-((3S,4R)-3,4-Difluoropyrrolidin-1-yl)-6-methylpyrimidin-4-yl)-1,3,4-oxadiazol-2-yl)-3-(6-azaspiro[2.5]octan-6-yl)phenyl)-2-hydroxyethane-1-sulfonamide] are 0.008 µM and 0.26 µM.
`Cc1cc(-c2nnc(-c3ccc(NS(=O)(=O)CCO)cc3N3CCC4(CC3)CC4)o2)nc(N2CCCC(F)C2)n1` (stereo not shown) [Example I-102, N-(4-(5-(2-(3-Fluoropiperidin-1-yl)-6-methylpyrimidin-4-yl)-1,3,4-oxadiazol-2-yl)-3-(6-azaspiro[2.5]octan-6-yl)phenyl)-2-hydroxyethane-1-sulfonamide]: the IC50 in test [1] is 0.004 µM; in test [2] (Homo sapiens, OVCAR-3, 72 h), 0.144 µM.
As to `Cc1cc(-c2nnc(-c3ccc(NS(=O)(=O)CCO)cc3N3CCC4(CC3)CC4)o2)nc(OCCC(F)(F)F)n1` [Example I-27, 2-Hydroxy-N-(4-(5-(6-methyl-2-(3,3,3-trifluoropropoxy)pyrimidin-4-yl)-1,3,4-oxadiazol-2-yl)-3-(6-azaspiro[2.5]octan-6-yl)phenyl)ethane-1-sulfonamide], the IC50 in test [1] stood at 0.001 µM; in test [2] (Homo sapiens, OVCAR-3, 72 h), 0.079 µM.
For `Cc1cc(-c2cnn(-c3ccc(NS(=O)(=O)CCO)cc3N3CCC4(CC3)CC4)c2)nc(N2CCCC2)n1` [Example I-116, N-(4-(4-(6-Methyl-2-(pyrrolidin-1-yl)pyrimidin-4-yl)-1H-pyrazol-1-yl)-3-(6-azaspiro[2.5]octan-6-yl)phenyl)-2-hydroxyethane-1-sulfonamide], the IC50 was 0.013 µM in test [1] and 0.389 µM in test [2] (Homo sapiens, OVCAR-3, 72 h).
As for `Cc1cc(-c2cnn(-c3ccc(NS(=O)(=O)CCO)cc3N3CCC(F)(F)CC3)c2)nc(N2CCC(F)(F)CC2)n1` [Example I-106, N-(3-(4,4-Difluoropiperidin-1-yl)-4-(4-(2-(4,4-difluoropiperidin-1-yl)-6-methylpyrimidin-4-yl)-1H-pyrazol-1-yl)phenyl)-2-hydroxyethane-1-sulfonamide], the IC50 in test [1] came to 0.011 µM; in test [2] (Homo sapiens, OVCAR-3, 72 h) it was 0.208 µM.
For the compound `Cc1cc(-c2nnc(-c3ccc(NS(=O)(=O)CCO)cc3N3CCC4(CC3)CC4)o2)cc(N2CCC(F)(F)CC2)n1` [Example I-52, N-(4-(5-(2-(4,4-Difluoropiperidin-1-yl)-6-methylpyridin-4-yl)-1,3,4-oxadiazol-2-yl)-3-(6-azaspiro[2.5]octan-6-yl)phenyl)-2-hydroxyethane-1-sulfonamide], the values for the IC50 in test [1] and in test [2] were 0.001 µM and 0.045 µM, respectively.
As for `Cc1cc(-c2nnc(-c3ccc(NS(=O)(=O)CCO)cc3N3CCC4(CC3)CC4)o2)nc(N2CCC(F)(F)C2)n1` [Example I-5, N-(4-(5-(2-(3,3-Difluoropyrrolidin-1-yl)-6-methylpyrimidin-4-yl)-1,3,4-oxadiazol-2-yl)-3-(6-azaspiro[2.5]octan-6-yl)phenyl)-2-hydroxyethane-1-sulfonamide], the IC50 turned out to be 0.007 µM in test [1] and 0.186 µM in test [2] (Homo sapiens, OVCAR-3, 72 h).
The matching figures for `Cc1cc(-c2nnc(-c3ccc(NS(=O)(=O)CCO)cc3N3CCC4(CC3)CC4)o2)nc(N2CC(F)(F)CC(F)(F)C2)n1` [Example I-100, N-(4-(5-(6-Methyl-2-(3,3,5,5-tetrafluoropiperidin-1-yl)pyrimidin-4-yl)-1,3,4-oxadiazol-2-yl)-3-(6-azaspiro[2.5]octan-6-yl)phenyl)-2-hydroxyethane-1-sulfonamide]: 0.01 µM and 0.115 µM.
On the same counts, the results for `Cc1cc(-c2cnn(-c3ccc(NS(=O)(=O)CCO)cc3N3CCC4(CC3)CC4)c2)nc(N2CCC(F)CC2)n1` [Example I-114, N-(4-(4-(2-(4-Fluoropiperidin-1-yl)-6-methylpyrimidin-4-yl)-1H-pyrazol-1-yl)-3-(6-azaspiro[2.5]octan-6-yl)phenyl)-2-hydroxyethane-1-sulfonamide] are 0.007 µM and 0.076 µM.
For the compound `Cc1cc(-c2nnc(-c3ccc(NS(=O)(=O)CCO)cc3N3CCC4(CC3)CC4)o2)nc(N2CCC(F)(F)CC2)c1` [Example I-87, N-(4-(5-(6-(4,4-Difluoropiperidin-1-yl)-4-methylpyridin-2-yl)-1,3,4-oxadiazol-2-yl)-3-(6-azaspiro [2.5]octan-6-yl)phenyl)-2-hydroxyethanesulfonamide], the IC50 turned out to be 0.004 µM in test [1] and 0.144 µM in test [2] (Homo sapiens, OVCAR-3, 72 h).
`O=S(=O)(CCO)Nc1ccc(-n2cc(-c3ncnc(N4CCC(F)(F)CC4)n3)cn2)c(N2CCC3(CC2)CC3)c1` [Example I-130, N-(4-(4-(4-(4,4-Difluoropiperidin-1-yl)-1,3,5-triazin-2-yl)-1H-pyrazol-1-yl)-3-(6-azaspiro [2.5]octan-6-yl)phenyl)-2-hydroxyethanesulfonamide]: the IC50 in test [1] came to 0.009 µM; in test [2] (Homo sapiens, OVCAR-3, 72 h) it was 0.142 µM.
